Test results published in patent US20240189440A1, “TLR7 AND TLR8 AGONISTS FOR THE TREATMENT OF CANCER AND/OR INFECTIOUS DISEASES” (priority 2021, published 2024).

Columns and labels:
[1] = patients with mild allergic asthma; Tsitoura et al. 2015; cited from earlier work
[2] = tested on: HBV infected primary human hepatocytes; conditions: Tsai et al. 2017, Bam et al. 2016; cited from earlier work
hepatitis C virus = conditions: treatment of hepatitis C virus; Fidock et al. 2011; cited from earlier work
[3] = tested on: NFκB pathway in Ramos-blue cells; assay: Ramos-Blue NFκB/SEAP reporter assay with cysteine-capped linker-payloads, 72 h (Example 15); type: cell-based; conditions: cysteine-capped, 72 hours, SEAP at 630 nm, read-out: Relative Activation; for activation at 5 µM: Linker-Payload Dose 5 uM; for activation at 50 µM: Linker-Payload Dose 50 uM
Experimental: A 50 mM cysteine stock was prepared in 0.1 M PBS pH 7.4. 10 equivalents of 50 mM cysteine were added to 1 equivalent of linker-payload to create a 2.50 mM solution. The reaction was vortexed and sat at room temperature for an hour to allow for the Michael addition to occur. After an hour, an aliquot was taken and run via UPLC-MS to ensure for the complete Michael reaction. The reaction was diluted to 1 mM using 0.1M PBS pH 7.4. The 1 mM solution was diluted to 500 uM and 50 uM in a 96-well plate to afford a final concentration of 50 uM and 5 uM in the cell suspension. The cell density and viability were calculated using the Countess Cell Counter and the proper volume of cells was removed in order to have a seeding density of 0.2×10^6 cells/mL per well. 135 uL of cell suspension was added to each well in a 96-well plate along with 15 uL of the corresponding linker-payload treatment. Each concentration was run in triplicate and incubated at 37° C. with 5% CO2 for 72 hours.
Invivogen's QUANTI-Blue™ solution was prepared by adding 200 uL of QB reagent and 200 uL of QB buffer to 19.6 mL of water. The resulting solution was vortexed and incubated at room temperature for ten minutes. The 96-well plate was centrifuged at 1990 rpm for ten minutes. Then, 40 uL of cell supernatant was added to 160 uL of the prepared QUANTI-Blue™ solution and incubated at 37° C. for 24 hours. The plate was read using the Molecular Devices i3x plate reader at a wavelength of 630 nm to determine the amount of SEAP production.

Row | Structure (SMILES) | activation at 5 µM [3] | activation at 50 µM [3] | also measured
1 | CCC[C@H](C)Oc1nc(N)c2[nH]c(=O)n(CCCCCN3CCCCC3)c2n1 [GSK-2245035] |  |  | Efficacy on allergen-induced asthmatic response [1]: lack efficacy
2 | CCCCOc1nc(N)c2c(n1)N(Cc1cccc(CN3CCCC3)c1)CC(=O)N2 [GS-9620] |  |  | Antiviral activity [2]: no antiviral activity
3 | CCc1nc2c(N)nc3ccccc3c2n1CCCCNS(C)(=O)=O [PF-4878691] |  |  | Therapeutic index (hepatitis C virus): low therapeutic index
4 | CCCCc1nc2c(N)nc3ccccc3c2n1Cc1ccc(CNC(=O)CCCCCN2C(=O)C=CC2=O)cc1 [Mc_E66, N-(4-((4-amino-2-butyl-1H-imidazo[4,5-c]quinolin-1-yl)methyl)benzyl)-6-(2,5-dioxo-2,5-dihydro-1H-pyrrol-1-yl)hexanamide] | 119% | -52.3% | 
5 | CCCCc1nc2c(N)nc3ccccc3c2n1Cc1ccc(NC(=O)CCCCCN2C(=O)C=CC2=O)cc1 [Mc_E104, N-(4-((4-amino-2-butyl-1H-imidazo[4,5-c]quinolin-1-yl)methyl)phenyl)-6-(2,5-dioxo-2,5-dihydro-1H-pyrrol-1-yl)hexanamide] | 704% | -52% | 
6 | CCCCc1nc2c(N)nc3ccccc3c2n1Cc1ccc(NC(=O)C(CCCNC(N)=O)NC(=O)C(NC(=O)CCCCCN2C(=O)C=CC2=O)C(C)C)cc1 (centres unmarked) [Mc_ValCit_E104, N-(1-(1-(4-((4-amino-2-butyl-1H-imidazo[4,5-c]quinolin-1-yl)methyl)phenylamino)-1-oxo-5-ureidopentan-2-ylamino)-3-methyl-1-oxobutan-2-yl)-6-(2,5-dioxo-2,5-dihydro-1H-pyrrol-1-yl)hexanamide] | 238% | -50.9% | 
7 | CCOCc1nc2c(NC(=O)OCc3ccc(NC(=O)C(CCCNC(N)=O)NC(=O)C(NC(=O)CCCCCN4C(=O)C=CC4=O)C(C)C)cc3)nc3ccccc3c2n1CC(C)(C)O (centres unmarked) [Mc_ValCitPABC_Resiquimod, 4-(2-(2-(6-(2,5-Dioxo-2,5-dihydro-1H-pyrrol-1-yl)hexanamido)-3-methylbutanamido)-5-ureidopentanamido)benzyl 2-(ethoxymethyl)-1-(2-hydroxy-2-methylpropyl)-1H-imidazo[4,5-c]quinolin-4-ylcarbamate] | 18.6% | -20.8% | 
